Measured values published in US12459951B2, “Compounds that interact with RAS superfamily proteins for treatment of cancers, inflammatory diseases, rasopathies, and fibrotic disease” (SHY Therapeutics, LLC, priority 2022, dated 2025).

Tests used:
KRas Q61H mutant = assay: Ras GTP Binding Domain Inhibition Assay (Ras Superfamily Assay); conditions: 20 μM compound; for KRas Q61H mutant + SOS: % inh.: with SOS; for KRas Q61H mutant: % inh.: without SOS
In short: (§1)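 His-tagged GTPases immobilised on nickel-coated plates, pre-incubated with compound (20 μM single point, or serial dilution for IC50) 3 h at room temperature, with or without 10-30 μg/mL Sos (residues 556-1049) in the final hour. Bound Cy3- or Cy5-GTP (100 nM, 45 min) measured by fluorescence after washing.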

KRas G12D mutant = assay: as above; conditions: 20 μM compound; for KRas G12D mutant + SOS: % inh.: with SOS; for KRas G12D mutant: % inh.: without SOS
In short: as §1

KRas G12C mutant = assay: as above; conditions: 20 μM compound; for KRas G12C mutant + SOS: % inh.: with SOS; for KRas G12C mutant: % inh.: without SOS
In short: as §1

Rho-A = target: T1, Rho-A (Homo sapiens, UniProt P61586); assay: as above; conditions: read-out: Rho-A: % inh..
T1 construct: made in house
In short: as §1

KRas wild type = assay: as above; conditions: 20 μM compound; for KRas wild type + SOS: % inh.: with SOS; for KRas wild type: % inh.: without SOS
In short: as §1

Rac-1 = target: T2, Rac-1 (Homo sapiens, UniProt P63000); assay: as above; conditions: read-out: Rac-1: % inh.
T2 construct: made in house
In short: as §1

[1] = tested on: Smad2/Smad3 phosphorylation; assay: Phospho-Smad2/3 Inhibition Assay (western blot), Panc-1; assay type: cell-based, human; conditions: at 10 μM, Panc-1 pancreatic cancer cell line; starred symbols = activation
In short: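 Panc-1 cells (KRas G12D), starved overnight in 0.5% FBS, treated 3 h at 37° C with compound at 10 μM final (0.3% DMSO) or serial dilutions for IC50, then stimulated with 10 ng/ml TGF-b1 for 1 h. Phospho-Smad2 (Ser465/467) and phospho-Smad3 (Ser423/425) detected by western blot.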

T1 sequence (P61586 whole entry): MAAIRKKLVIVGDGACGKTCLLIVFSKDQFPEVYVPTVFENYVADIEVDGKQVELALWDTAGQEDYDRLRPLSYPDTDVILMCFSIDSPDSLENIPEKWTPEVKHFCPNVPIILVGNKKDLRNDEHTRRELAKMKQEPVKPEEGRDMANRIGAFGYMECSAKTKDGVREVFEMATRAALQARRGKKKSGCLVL

Structure (SMILES)	KRas Q61H mutant + SOS: % inh. (KRas Q61H mutant)	KRas Q61H mutant: % inh. (KRas Q61H mutant)	KRas G12D mutant + SOS: % inh. (KRas G12D mutant)	KRas G12D mutant: % inh. (KRas G12D mutant)	KRas G12C mutant + SOS: % inh. (KRas G12C mutant)	KRas G12C mutant: % inh. (KRas G12C mutant)	inhibition at 20 µM (Rho-A) [%]	KRas wild type + SOS: % inh. (KRas wild type)	KRas wild type: % inh. (KRas wild type)	inhibition at 20 µM (Rac-1) [%]	% inh of Smad2/3 phosphorylation in Panc-1 [1]
COc1ccc(-c2cn3nc(-c4nccn4C)nc(Nc4cc(OC)ncn4)c3c2C)cn1 [Compound 66, 6-(6-Methoxypyridin-3-yl)-N-(6-methoxypyrimidin-4-yl)-5-methyl-2-(1-methyl-1H-imidazol-2-yl)pyrrolo[2,1-f][1,2,4]triazin-4-amine]	D (D = 76-100% inhibition)	D (D = 76-100% inhibition)	D (D = 76-100% inhibition)	D (D = 76-100% inhibition)	C (C = 50-75% inhibition)	D (D = 76-100% inhibition)	76 to 100	D (D = 76-100% inhibition)	D (D = 76-100% inhibition)	76 to 100	A* (A* = 1-25% activation)
COc1cc(Nc2nc(-c3nccn3C)nn3cc(-c4cccc(OC)n4)c(C)c23)ncn1 [Compound 65, 6-(6-Methoxypyridin-2-yl)-N-(6-methoxypyrimidin-4-yl)-5-methyl-2-(1-methyl-1H-imidazol-2-yl)pyrrolo[2,1-f][1,2,4]triazin-4-amine]	C (C = 50-75% inhibition)	C (C = 50-75% inhibition)	C (C = 50-75% inhibition)	C (C = 50-75% inhibition)	A (A = 1-25% inhibition)	C (C = 50-75% inhibition)	76 to 100	B (B = 26-49% inhibition)	C (C = 50-75% inhibition)	76 to 100	A* (A* = 1-25% activation)
COc1cccc(-c2cn3nc(-c4nccn4C)nc(N[C@H]4C[C@H](OC)C4)c3c2-c2ccn(C)n2)c1F [Compound 47, 6-(2-Fluoro-3-methoxyphenyl)-N-((1r,3r)-3-methoxycyclobutyl)-2-(1-methyl-1H-imidazol-2-yl)-5-(1-methyl-1H-pyrazol-3-yl)pyrrolo[2,1-f][1,2,4]triazin-4-amine]	A (A = 1-25% inhibition)	A (A = 1-25% inhibition)	A (A = 1-25% inhibition)	A (A = 1-25% inhibition)	0 (0 = 0% inhibition)	0 (0 = 0% inhibition)	1 to 25	0 (0 = 0% inhibition)	0 (0 = 0% inhibition)	0	D (D = 76-100% inhibition)

Now from value to compound, other results behind:

KRas Q61H mutant + SOS: % inh. (KRas Q61H mutant)	KRas Q61H mutant: % inh. (KRas Q61H mutant)	KRas G12D mutant + SOS: % inh. (KRas G12D mutant)	KRas G12D mutant: % inh. (KRas G12D mutant)	KRas G12C mutant + SOS: % inh. (KRas G12C mutant)	KRas G12C mutant: % inh. (KRas G12C mutant)	inhibition at 20 µM (Rho-A) [%]	KRas wild type + SOS: % inh. (KRas wild type)	KRas wild type: % inh. (KRas wild type)	inhibition at 20 µM (Rac-1) [%]	Structure (SMILES)	% inh of Smad2/3 phosphorylation in Panc-1 [1]
0 (0 = 0% inhibition)	A (A = 1-25% inhibition)	0 (0 = 0% inhibition)	0 (0 = 0% inhibition)	0 (0 = 0% inhibition)	0 (0 = 0% inhibition)	1 to 25	A (A = 1-25% inhibition)	A (A = 1-25% inhibition)	1 to 25	COC1CCCN(c2nc(-c3ccccn3)nn3cc(-c4ccn(C(C)C)n4)c(-c4ccccc4)c23)C1 (racemic) [Compound 27, rac 6-(1-Isopropyl-1H-pyrazol-3-yl)-4-(3-methoxypiperidin-1-yl)-5-phenyl-2-(pyridin-2-yl)pyrrolo[2,1-f][1,2,4]triazine]	D (D = 76-100% inhibition)
D (D = 76-100% inhibition)	D (D = 76-100% inhibition)	D (D = 76-100% inhibition)	D (D = 76-100% inhibition)	D (D = 76-100% inhibition)	D (D = 76-100% inhibition)	76 to 100	D (D = 76-100% inhibition)	D (D = 76-100% inhibition)	76 to 100	Cc1c(-c2ccn(C(C)C)n2)cn2nc(-c3nccn3C)nc(Nc3ccccn3)c12 [Compound 57, 6-(1-Isopropyl-1H-pyrazol-3-yl)-5-methyl-2-(1-methyl-1H-imidazol-2-yl)-N-(pyridin-2-yl)pyrrolo[2,1-f][1,2,4]triazin-4-amine]	A* (A* = 1-25% activation)
A (A = 1-25% inhibition)	A (A = 1-25% inhibition)	A (A = 1-25% inhibition)	B (B = 26-49% inhibition)	0 (0 = 0% inhibition)	A (A = 1-25% inhibition)	26 to 49	0 (0 = 0% inhibition)	A (A = 1-25% inhibition)	50 to 75	Cc1c(-c2ccn(C(C)C)n2)cn2nc(-c3nccn3C)nc(Nc3cnccn3)c12 [Compound 62, 6-(1-Isopropyl-1H-pyrazol-3-yl)-5-methyl-2-(1-methyl-1H-imidazol-2-yl)-N-(pyrazin-2-yl)pyrrolo[2,1-f][1,2,4]triazin-4-amine]	A* (A* = 1-25% activation)
A (A = 1-25% inhibition)	0 (0 = 0% inhibition)	0 (0 = 0% inhibition)	0 (0 = 0% inhibition)	0 (0 = 0% inhibition)	0 (0 = 0% inhibition)	1 to 25	0 (0 = 0% inhibition)	0 (0 = 0% inhibition)	1 to 25	COc1cccc(Nc2nc(-c3nccn3C)nn3ccc(-c4ccccc4)c23)n1 [Compound 40, N-(6-Methoxypyridin-2-yl)-2-(1-methyl-1H-imidazol-2-yl)-5-phenylpyrrolo[2,1-f][1,2,4]triazin-4-amine]	B (B = 26-45% inhibition)
0 (0 = 0% inhibition)	A (A = 1-25% inhibition)	A (A = 1-25% inhibition)	A (A = 1-25% inhibition)	0 (0 = 0% inhibition)	A (A = 1-25% inhibition)	1 to 25	0 (0 = 0% inhibition)	A (A = 1-25% inhibition)	1 to 25	Cc1c(-c2ccn(C(C)C)n2)cn2nc(-c3nccn3C)nc(Nc3nc(C4CC4)no3)c12 [Compound 70, 3-Cyclopropyl-N-(6-(1-isopropyl-1H-pyrazol-3-yl)-5-methyl-2-(1-methyl-1H-imidazol-2-yl)pyrrolo[2,1-f][1,2,4]triazin-4-yl)-1,2,4-oxadiazol-5-amine]	0 (0 = 0% inhibition)
